According to patent publication US20220324770A1, “NITRIFICATION INHIBITORS” (The University of Melbourne, priority 2019, published 2022):

Tests used:
Dahlen soil = assay: Soil thin-layer chromatography (TLC) leaching study, Dahlen soil; type: physicochemical; conditions: Dahlen soil TLC
Procedure: (§1) TLC plates were prepared based on methods described in the literature (Helling, C. S., Turner, B. C, Science 1968, 162, 562-563; Mohammad, A., Jabeen, N., JPC—Journal of Planar Chromatography—Modern TLC 2003, 16, 137-143). Masking tape (3 layers, ˜[…] total thickness) was used to outline three columns (4 cm W×12 cm H) on a glass TLC plate (20×20 cm). A slurry of freshly ground soil in distilled H2O (˜2:3 m/v) was then poured onto the prepared plate and spread evenly using a glass rod. Once even, the plate was dried overnight in an oven at 35° C. Careful removal of the masking tape afforded the TLC plate ready for sample application.
(§2) Samples of DMP (the active core of DMPP) or Compound 16 (˜1 mg) dissolved in acetone (100 μL) were pipetted in a straight line across the soil, 2 cm above the base of the plate. Application band thickness was kept under 0.5 cm. After 30 mins of drying time, the TLC plate was developed inside a glass developing chamber with distilled H2O (depth of 0.5 cm) until the solvent front reached the top of the soil (˜1 hr). […] The plate was then allowed to air dry overnight.
(§3) Once dry, the plate was divided into six horizontal bands corresponding to Rf values of: (1) <0.05 (baseline), (2) 0.05 to 0.25, (3) 0.25 to 0.45, (4) 0.45 to 0.65, (5) 0.65 to 0.85, and (6) 0.85 to 1. In sequence, soil in each band was carefully scraped off the glass backing and collected in vials. Special care was taken to avoid cross-contamination between soil of different bands, and the separate channels.
(§4) Individual soil bands collected from the TLC plate were extracted as follows: • 1. Addition of an aqueous solution of CaCl2/MgSO4 (0.01M and 0.45M respectively, 2 mL). • 2. Sonication for 5 minutes then manual shaking for 30 seconds. • 3. Addition of methyl-tert-butyl ether (MTBE, 2 mL) then manual shaking for 30 seconds. • 4. Sonication for 10 minutes then manual shaking for 30 seconds. • 5. Rested until soil began to settle, then frozen overnight at −20° C. • 6. After partial defrosting, the ethereal extract was filtered through nylon syringe filters (FilterBio®, 13 mm diameter, 0.45 µm pore size).
(§5) The filtered ethereal extracts (450 μL) were spiked with 50 μL of a standard solution of either cyclododecanone in MTBE (1.97 mg/mL, for DMP-treated samples) or cyclooctanone in MTBE (6.37 mg/mL, for 16-treated samples). Samples were then directly analysed by GC-MS (method: 70° C. for 5 mins, then ramp 10° C./min to 250° C., hold at 250° C. for 17 mins [total run time=40 minutes]) to analyse the presence or absence of the inhibitor in each soil band.
(§6) GC-MS peak areas calculated for the standards cyclooctanone (Rt=9.1 mins) and cyclododecanone (Rt=15.8 mins) were compared to those calculated for Compound 16 (Rt=13.9 mins) and DMP (Rt=7.6 mins) respectively, for each soil sample extract where inhibitor was detected as follows:
(§7) As each treatment was run in triplicate, mean values are reported for detected inhibitor percentages for each Rf band, with errors presented as the standard deviation.
as §2, with “the DCD” for “DMP (the active core of DMPP) or Compound 16”, “methanol (300” for “acetone (100”, “in” for “with”
(§8) Individual soil bands collected from the TLC plate were extracted as follows: • 1. Addition of methanol (2 mL). • 2. Manual shaking for 30 seconds following sonication for 15 minutes. • 3. Once soil began to settle, the methanolic extract was filtered through nylon syringe filters (FilterBio®, 13 mm diameter, 0.45 µm pore size). • 4. 300 μL of the methanolic extracts were evaporated under nitrogen flow, and then the residues was taken up in ultrapure acetonitrile (1 mL). • 5. […]

South Johnstone soil = assay: Soil thin-layer chromatography (TLC) leaching study, South Johnstone soil; type: physicochemical
Procedure: as §1, §2, §3, §4, §5, §6, §7
as §2, with “the DCD” for “DMP (the active core of DMPP) or Compound 16”, “methanol (300” for “acetone (100”, “in” for “with”
as §8

| Rf range in which the majority of the inhibitor was detected (Dahlen soil) | Detected Inhibitor (%) (Dahlen soil; Rf 0.45-0.65) | Detected Inhibitor (%) (Dahlen soil; Rf 0.65-0.85) | Detected Inhibitor (%) (Dahlen soil; Rf 0.85-1) | Detected Inhibitor (%) (South Johnstone soil; South Johnstone soil TLC, Rf 0.25-0.45) | Detected Inhibitor (%) (South Johnstone soil; South Johnstone soil TLC, Rf 0.45-0.65) | Detected Inhibitor (%) (South Johnstone soil; South Johnstone soil TLC, Rf 0.65-0.85) | SMILES | Rf range of largest DCD accumulation (Dahlen soil; HPLC detection, preliminary results) | Rf range of largest DCD accumulation (South Johnstone soil; South Johnstone soil TLC, HPLC detection, preliminary results) | leaching in soil TLC (South Johnstone soil; acidic South Johnstone soil) |
| --- | --- | --- | --- | --- | --- | --- | --- | --- | --- | --- |
| – | – | – | – | – | – | – | N#CN=C(N)N [DCD, dicyandiamide, reference compound] | 0.65-1 | 0.65-1 | – |
| 0.65-0.85 | 0.1 ± 0.2 | 72 ± 16 | 28 ± 16 | 2 ± 2 | 56 ± 12 | 42 ± 13 | Cc1c[nH]nc1C [DMP, 3,4-dimethylpyrazole, reference compound] | – | – | leach in a narrower band and to a lesser extent than Compound 16 |
